The structures appear in SMILES notation. In brackets after ≈: the same amount, converted by molar mass.

Assay [1] concerns M. tuberculosis transformed with luxABCDE. As to the kind of experiment: microbe, parasite or virus in culture. It is filed as cell-based, Mycobacterium tuberculosis. Conditions: for MBC: Mycobacterium tuberculosis, 168 h, ≥99% reduction in luminescence, read-out: MBC99 Day 7 (Lux Assay) MBC.
For assay [2], the system named is non-replicating cultures of M. tuberculosis H37Rv transformed with lux ABCDE. As to the kind of experiment: microbe, parasite or virus in culture. In kind it is cell-based, Mycobacterium tuberculosis. Conditions: for MIC90 / MIC: Mycobacterium tuberculosis, H37RV, ≥90% reduction in luminescence, read-out: MIC90 LORA; for MIC90 LORA/MABA: ratio of LORA MIC90 to MABA MIC90. A general note: The colour change of resazurin is a common sign of viable cells or microbes.

Turning to `CO[C@H]1/C=C/O[C@@]2(C)Oc3c(C)c(O)c4c(=O)c(c5oc6cc(N7CCC(C(=O)O)CC7)cc(C)c6nc-5c4c3C2=O)NC(=O)/C(C)=C\C=C\[C@H](C)[C@H](O)[C@@H](C)[C@@H](O)[C@@H](C)[C@H](OC(C)=O)[C@@H]1C` [Compound 29f, 1-[(7S,9E,11S,12R,13S,14R,15R,16R,17S,18S,19E,21Z)-13-(acetyloxy)-2,15,17-trihydroxy-11-methoxy-3,7,12,14,16,18,22,32-octamethyl-6,23,37-trioxo-8,27,38-trioxa-24,34-diazahexacyclo-[23.11.1.1^4,7.0^5,36.0^26,35.0^28,33]octatriaconta-1,3,5(36)9,19,21,25,28,30,32,34-undecaen-30-yl]piperidine-4-carboxylic acid], in assay [1], the MBC is more than 0.1 µM. For the same compound, in assay [2], the “MIC90 LORA Rel to RMP” value was 40, the MIC90 stood at 1.07 µM (≈ 0.987 µg/mL) and the “MIC90 LORA/MABA” value worked out at 4.5.

Consider `CO[C@H]1/C=C/O[C@@]2(C)Oc3c(C)c(O)c4c(=O)c(c5oc6cc(N7CCN(C(=O)C(C)(C)C)CC7)cc(OCc7ccc(CN8CCOCC8)cc7)c6nc-5c4c3C2=O)NC(=O)/C(C)=C\C=C\[C@H](C)[C@H](O)[C@@H](C)[C@@H](O)[C@@H](C)[C@H](OC(C)=O)[C@@H]1C` [Compound 17f, (7S,9E,11S,12R,13S,14R,15R,16R,17S,18S,19E,21Z)-30-[4-(2,2-Dimethylpropanoyl)-piperazin-1-yl]-2,15,17-trihydroxy-11-methoxy-3,7,12,14,16,18,22-heptamethyl-32-({4-[(morpholin-4-yl)methyl]phenyl}methoxy)-6,23,37-trioxo-8,27,38-trioxa-24,34-diazahexacyclo[23.11.1.1^4,7.0^5,36.0^26,35.0^28,33]octatriaconta-1(36)2,4,9,19,21,25,28,30,32,34-undecaen-13-yl acetate], for which the MBC in assay [1] is more than 0.1 µM. In assay [2], the “MIC90 LORA Rel to RMP” value was 1.8, the MIC came to 0.369 µM and the “MIC90 LORA/MABA” value is 14.

Take `CO[C@H]1/C=C/O[C@@]2(C)Oc3c(C)c(O)c4c(=O)c(c5oc6cc(N7CCN(C(=O)c8ccccc8)CC7)cc(OCc7ccc(CN8CCOCC8)cc7)c6nc-5c4c3C2=O)NC(=O)/C(C)=C\C=C\[C@H](C)[C@H](O)[C@@H](C)[C@@H](O)[C@@H](C)[C@H](OC(C)=O)[C@@H]1C` [Compound 17m, (7S,9E,11S,12R,13S,14R,15R,16R,17S,18S,19E,21Z)-30-(4-benzoylpiperazin-1-yl)-2,15,17-trihydroxy-1-methoxy-3,7,12,14,16,18,22-heptamethyl-32-{[4-(morpholin-4-ylmethyl)phenyl]methoxy}-6,23,37-trioxo-8,27,38-trioxa-24,34-diazahexacyclo-[23.11.1.1^4,7.0^5,36.0^26,35.0^28,33]octatriaconta-1,3,5(36)9,19,21,25,28,30,32,34-undecaen-13-yl acetate]: in assay [1], the “MBC99 Day 7 (Lux Assay) MBC Rel to RMP” value was found to be 0.48 and the MBC came out at 0.217 µM. Moreover, in assay [2], the “MIC90 LORA Rel to RMP” value worked out at 1.4, the MIC90 is 0.072 µM and the “MIC90 LORA/MABA” value turned out to be 4.2.

Turning to `CO[C@H]1/C=C/O[C@@]2(C)Oc3c(C)c(O)c4c(=O)c(c5oc6cc(N7CCN(CC(C)C)CC7)cc(OCc7ccc(CN8CCN(C)CC8)cc7)c6nc-5c4c3C2=O)NC(=O)/C(C)=C\C=C\[C@H](C)[C@H](O)[C@@H](C)[C@@H](O)[C@@H](C)[C@H](OC(C)=O)[C@@H]1C` [Compound 17p, (7S,9E,11S,12R,13S,14R,15R,16R,17S,18S,19E,21Z)-2,15,17-trihydroxy-11-methoxy-3,7,12,14,16,18,22-heptamethyl-32-({4-[(4-methylpiperazin-1-yl)methyl]phenyl}methoxy)-30-[4-(2-methylpropyl)piperazin-1-yl]-6,23,37-trioxo-8,27,38-trioxa-24,34-diazahexacyclo-[23.11.1.1^4,7.0^5,36.0^26,35.0^28,33]octatriaconta-1,3,5(36)9,19,21,25,28,30,32,34-undecaen-13-yl acetate], in assay [1], the “MBC99 Day 7 (Lux Assay) MBC Rel to RMP” value came to 0.20 and the MBC amounted to 0.092 µM. For the same compound, in assay [2], the MIC90 stood at 0.035 µM and the “MIC90 LORA/MABA” value is on record as 3.7.

As for `CO[C@H]1/C=C/O[C@@]2(C)Oc3c(C)c(O)c4c(=O)c(c5oc6cc(N7CCN(C8CCN(C)CC8)CC7)cc(OCc7ccc(CN8CCOCC8)cc7)c6nc-5c4c3C2=O)NC(=O)/C(C)=C\C=C\[C@H](C)[C@H](O)[C@@H](C)[C@@H](O)[C@@H](C)[C@H](OC(C)=O)[C@@H]1C` [Compound 17h, (7S,9E,11S,12R,13S,14R,15R,16R,17S,18S,19E,21Z)-2,15,17-trihydroxy-11-methoxy-3,7,12,14,16,18,22-heptamethyl-30-[4-(1-methylpiperidin-4-yl)piperazin-1-yl]-32-{[4-(morpholin-4-ylmethyl)phenyl]methoxy}-6,23,37-trioxo-8,27,38-trioxa-24,34-diazahexacyclo-[23.11.1.1^4,7.0^5,36.0^26,35.0^28,33]octatriaconta-1,3,5(36)9,19,21,25,28,30,32,34-undecaen-13-yl acetate], the MBC in assay [1] was more than 0.1 µM. Further, in assay [2], the “MIC90 LORA Rel to RMP” value amounted to 12, the MIC90 turned out to be 0.318 µM and the “MIC90 LORA/MABA” value was found to be 9.0.

As for `CO[C@H]1/C=C/O[C@@]2(C)Oc3c(C)c(O)c4c(=O)c(c5oc6cc(N7CCC(CC(=O)O)CC7)cc(C)c6nc-5c4c3C2=O)NC(=O)/C(C)=C\C=C\[C@H](C)[C@H](O)[C@@H](C)[C@@H](O)[C@@H](C)[C@H](OC(C)=O)[C@@H]1C` [Compound 29g, 2-{4-[(7S,9E,11S,12R,13S,14R,15R,16R,17S,18S,19E,21Z)-13-(acetyloxy)-2,15,17-trihydroxy-11-methoxy-3,7,12,14,16,18,22,32-octamethyl-6,23,37-trioxo-8,27,38-trioxa-24,34-diazahexacyclo[23.11.1.1^4,7.0^5,36.0^26,35.0^28,33]octatriaconta-1,3,5(36)9,19,21,25,28,30,32,34-undecaen-30-yl]piperidin-4-yl}acetic acid], the MBC in assay [1] was more than 0.1 µM. In addition, in assay [2], the “MIC90 LORA Rel to RMP” value came out at 10, the MIC90 was 0.28 µM (≈ 0.263 µg/mL) and the “MIC90 LORA/MABA” value came to 5.4.

Regarding `CO[C@H]1/C=C/O[C@@]2(C)Oc3c(C)c(O)c4c(=O)c(c5oc6cc(N7CCOC(CN(C)C)C7)cc(OCc7ccc(CN8CCOCC8)cc7)c6nc-5c4c3C2=O)NC(=O)/C(C)=C\C=C\[C@H](C)[C@H](O)[C@@H](C)[C@@H](O)[C@@H](C)[C@H](OC(C)=O)[C@@H]1C` (stereo partly drawn) [Compound 17o, (7S,9E,11S,12R,13S,14R,15R,16R,17S,18S,19E,21Z)-30-{2-[(dimethylamino)methyl]morpholin-4-yl}-2,15,17-trihydroxy-11-methoxy-3,7,12,14,16,18,22-heptamethyl-32-{[4-(morpholin-4-ylmethyl)phenyl]methoxy}-6,23,37-trioxo-8,27,38-trioxa-24,34-diazahexacyclo[23.11.1.1^4,7.0^5,36.0^26,35.0^28,33]octatriaconta-1,3,5(36)9,19,21,25,28,30,32,34-undecaen-13-yl acetate], in assay [1], the “MBC99 Day 7 (Lux Assay) MBC Rel to RMP” value amounted to 0.28 and the MBC stood at 0.128 µM. Further, in assay [2], the “MIC90 LORA Rel to RMP” value was 2.1, the MIC90 stood at 0.106 µM and the “MIC90 LORA/MABA” value is listed as 19.

`CO[C@H]1/C=C/O[C@@]2(C)Oc3c(C)c(O)c4c(=O)c(c5oc6cc(N7CCC(C(=O)O)CC7)cc(OCc7ccc(CN8CCN(C)CC8)cc7)c6nc-5c4c3C2=O)NC(=O)/C(C)=C\C=C\[C@H](C)[C@H](O)[C@@H](C)[C@@H](O)[C@@H](C)[C@H](OC(C)=O)[C@@H]1C` [Compound 17q, 1-[(7S,9E,11S,12R,13S,14R,15R,16R,17S,18S,19E,21Z)-13-(acetyloxy)-2,15,17-trihydroxy-11-methoxy-3,7,12,14,16,18,22-heptamethyl-32-({4-[(4-methylpiperazin-1-yl)methyl]phenyl}methoxy)-6,23,37-trioxo-8,27,38-trioxa-24,34-diazahexacyclo-[23.11.1.1^4,7.0^5,36.0^26,35.0^28,33]-octatriaconta-1,3,5(36)9,19,21,25,28,30,32,34-undecaen-30-yl]piperidine-4-carboxylic acid]: the MBC in assay [1] is more than 0.1 µM. In addition, in assay [2], the MIC90 was more than 0.02 µM.

With `CO[C@H]1/C=C/O[C@@]2(C)Oc3c(C)c(O)c4c(=O)c(c5oc6cc(N7CCN(C(C)=O)CC7)cc(C)c6nc-5c4c3C2=O)NC(=O)/C(C)=C\C=C\[C@H](C)[C@H](O)[C@@H](C)[C@@H](O)[C@@H](C)[C@H](OC(C)=O)[C@@H]1C` [Compound 26d, (7S,9E,11S,12R,13S,14R,15R,16R,17S,18S,19E,21Z)-30-(4-Acetylpiperazin-1-yl)-2,15,17-trihydroxy-11-methoxy-3,7,12,14,16,18,22,32-octamethyl-6,23,37-trioxo-8,27,38-trioxa-24,34-diazahexacyclo[23.11.1.1^4,7.0^5,36.0^26,35.0^28,33]octatriaconta-1(36)2,4,9,19,21,25,28,30,32,34-undecaen-13-yl acetate], the MBC in assay [1] is more than 0.1 µM. Also, in assay [2], the MIC90 is more than 0.02 µM.

In the case of `CO[C@H]1/C=C/O[C@@]2(C)Oc3c(C)c(O)c4c(=O)c(c5oc6cc(N7CCS(=O)(=O)CC7)cc(OCc7ccc(CN8CCOCC8)cc7)c6nc-5c4c3C2=O)NC(=O)/C(C)=C\C=C\[C@H](C)[C@H](O)[C@@H](C)[C@@H](O)[C@@H](C)[C@H](OC(C)=O)[C@@H]1C` [Compound 17j, (7S,9E,11S,12R,13S,14R,15R,16R,17S,18S,19E,21Z)-30-(1,1-dioxothiomorpholin-4-yl)-2,15,17-trihydroxy-11-methoxy-3,7,12,14,16,18,22-heptamethyl-32-([4-(morpholin-4-ylmethyl)phenyl]methoxy)-6,23,37-trioxo-8,27,38-trioxa-24,34-diazahexacyclo-[23.11.1.1^4,7.0^5,36.0^26,35.0^28,33]octatriaconta-1,3,5(36)9,19,21,25,28,30,32,34-undecaen-13-yl acetate], in assay [1], the MBC was more than 0.1 µM. Further, in assay [2], the MIC is more than 0.02 µM.
